Results published in ChEMBL document CHEMBL1201862, “PubChem BioAssay data set” (2004).
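1) Cells in 96-well plates. 2) Compound, 48 h, 5 concentrations. 3) Linear interpolation between surrounding doses. 4) Unreached endpoint = highest concentration. GI50 marks 50% less growth.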 The source made the active and inactive calls. Cut-off read from the data, not from the text of the source: active = GI50 up to about 1.1 µM and inactive = higher.

Legend:
Assay in all cases: growth of human tumour cells (NCI), 48 h
UACC-62 = tested on: UACC-62
NCI/ADR-RES = tested on: NCI/ADR-RES
SK-MEL-5 = tested on: SK-MEL-5
HOP-62 = tested on: HOP-62
NCI-H522 = tested on: NCI-H522
LOX IMVI = tested on: LOX IMVI
HOP-92 = tested on: HOP-92
HL-60 = tested on: HL-60
CAKI-1 = tested on: CAKI-1
MDA-MB-231 = tested on: MDA-MB-231
UO-31 = tested on: UO-31
IGROV-1 = tested on: IGROV-1
HT-29 = tested on: HT-29
SF-539 = tested on: SF-539
OVCAR-5 = tested on: OVCAR-5
SNB-75 = tested on: SNB-75
HCT-116 = tested on: HCT-116
MDA-MB-435 = tested on: MDA-MB-435
KM12 = tested on: KM12
HCC 2998 = tested on: HCC 2998

Compound | GI50 (UACC-62) | GI50 (NCI/ADR-RES) | GI50 (SK-MEL-5) | GI50 (HOP-62) | GI50 (NCI-H522) | GI50 (LOX IMVI) | GI50 (HOP-92) | GI50 (HL-60) | GI50 (CAKI-1) | GI50 (MDA-MB-231) | GI50 (UO-31) | GI50 (IGROV-1) | GI50 (HT-29) | GI50 (SF-539) | GI50 (OVCAR-5) | GI50 (SNB-75) | GI50 (HCT-116) | GI50 (MDA-MB-435) | GI50 (KM12) | GI50 (HCC 2998)
CC(C)[Si]1(C(C)C)OCC2OC(n3cnc4c(N)ncnc43)C(N)C2O[Si](C(C)C)(C(C)C)O1 (stereo not given) | 10.1 µM (inactive) | 5.21 µM (inactive) | 2.06 µM (inactive) | 17.2 µM (inactive) | 8.04 µM (inactive) | 5.75 µM (inactive) | 11.8 µM (inactive) | 3.78 µM (inactive) | 11 µM (inactive) | 13.7 µM (inactive) | 3.47 µM (inactive) | 7.33 µM (inactive) | 4.6 µM (inactive) | 11.6 µM (inactive) | 16.8 µM (inactive) | 4.69 µM (inactive) | 4.14 µM (inactive) | 6.75 µM (inactive) | 4.1 µM (inactive) | 4.79 µM (inactive)
N#CC1=C(N)OC2=C(CCCc3ccccc32)C1c1ccc([N+](=O)[O-])cc1 (stereo not given) | 11.2 µM (inactive) | 11.9 µM (inactive) | 14.3 µM (inactive) | 17.2 µM (inactive) | 8.22 µM (inactive) | 19.1 µM (inactive) | 19.1 µM (inactive) | 5.93 µM (inactive) | 29.6 µM (inactive) | 26.9 µM (inactive) | 11.8 µM (inactive) | 19.2 µM (inactive) | 12.2 µM (inactive) | 19.2 µM (inactive) | 21.8 µM (inactive) | 55 µM (inactive) | 12.8 µM (inactive) | 15.9 µM (inactive) | 16.1 µM (inactive) | 13.6 µM (inactive)
O=C1N2CCC[C@H]2CS1(=O)=O | 16.4 µM (inactive) | 30 µM (inactive) | 17.5 µM (inactive) | 16.1 µM (inactive) | 5.66 µM (inactive) | 11.3 µM (inactive) | 10.9 µM (inactive) | 19.1 µM (inactive) | 5.73 µM (inactive) | 15.4 µM (inactive) | 14.5 µM (inactive) | 15.5 µM (inactive) | 28.5 µM (inactive) | 29.5 µM (inactive) | 36.9 µM (inactive) | 18.6 µM (inactive) | 12.7 µM (inactive) | 17.1 µM (inactive) | 16.6 µM (inactive) | 17.3 µM (inactive)
COc1ccc(-c2nc(N3CCCC3)no2)cc1 | 31 µM (inactive) | 44.5 µM (inactive) | 53.6 µM (inactive) | 27.9 µM (inactive) | 39.1 µM (inactive) | 33 µM (inactive) | 48.4 µM (inactive) | 1.5 µM (inactive) | 51.6 µM (inactive) | 50.1 µM (inactive) | 49.4 µM (inactive) | 18.9 µM (inactive) | 54.7 µM (inactive) | 24 µM (inactive) | > 86.7 µM (inactive) | 34.1 µM (inactive) | > 91.8 µM (inactive) | > 100 µM (inactive) | 88.5 µM (inactive) | 73.5 µM (inactive)
CC(NC1=CC(=O)c2ncccc2C1=O)C(O)c1ccccc1 (stereo not given) | 2.02 µM (inactive) | 8.15 µM (inactive) | 1.18 µM (inactive) | 4.83 µM (inactive) | 7.66 µM (inactive) | 1.8 µM (inactive) | 13.2 µM (inactive) | 3.44 µM (inactive) | 6.78 µM (inactive) | 2.41 µM (inactive) | 2.95 µM (inactive) | 3.67 µM (inactive) | 11.5 µM (inactive) | 6.04 µM (inactive) | 15.5 µM (inactive) | 2.36 µM (inactive) | 3.6 µM (inactive) | 1.59 µM (inactive) | 7.67 µM (inactive) | 10.2 µM (inactive)
Cc1ccc(S(=O)(=O)OC2C3OC(C)(C)OC3OC2C(c2cc(O)c3c(c2O)C(=O)c2ccccc2C3=O)c2cc(O)c3c(c2O)C(=O)c2ccccc2C3=O)cc1 (stereo not given) | > 10 µM (inactive) | > 10 µM (inactive) | > 10 µM (inactive) | > 10 µM (inactive) | > 10 µM (inactive) | > 10 µM (inactive) | > 10 µM (inactive) | > 10 µM (inactive) | > 10 µM (inactive) | > 10 µM (inactive) | > 10 µM (inactive) | > 10 µM (inactive) | > 10 µM (inactive) | > 10 µM (inactive) | > 10 µM (inactive) | > 10 µM (inactive) | > 10 µM (inactive) | > 10 µM (inactive) | > 10 µM (inactive) | > 10 µM (inactive)
Cc1c(C(C)C)cc(OCCO)cc1C(C)C | 40.6 µM (inactive) | 40 µM (inactive) | 17.6 µM (inactive) | 75.7 µM (inactive) | 25.9 µM (inactive) | 24.9 µM (inactive) | 19.8 µM (inactive) | 23.1 µM (inactive) | 70.6 µM (inactive) | 32.9 µM (inactive) | 67.1 µM (inactive) | 58.3 µM (inactive) | 26.6 µM (inactive) | 55.5 µM (inactive) | 66.4 µM (inactive) | 23.9 µM (inactive) | 31.3 µM (inactive) | 31.5 µM (inactive) | 43.2 µM (inactive) | 55.6 µM (inactive)
N=C(N)N/N=C/c1cnn(C(=N)N)c1 | > 100 µM (inactive) | > 100 µM (inactive) | > 100 µM (inactive) | > 100 µM (inactive) | > 100 µM (inactive) | > 100 µM (inactive) | > 100 µM (inactive) | > 100 µM (inactive) | > 100 µM (inactive) | > 100 µM (inactive) | > 100 µM (inactive) | > 100 µM (inactive) | > 100 µM (inactive) | > 100 µM (inactive) | > 100 µM (inactive) | 95.3 µM (inactive) | > 100 µM (inactive) | > 100 µM (inactive) | 64.1 µM (inactive) | > 100 µM (inactive)
N#CC(NNC(=O)Cc1ccccc1)c1c(O)ccc2ccccc12 (stereo not given) | 3.08 µM (inactive) | 2.92 µM (inactive) | 3.46 µM (inactive) | 10.2 µM (inactive) | 3.47 µM (inactive) | 1.47 µM (inactive) | 5 µM (inactive) | 1.67 µM (inactive) | 4.91 µM (inactive) | 4.19 µM (inactive) | 2.84 µM (inactive) | 5.31 µM (inactive) | 11.3 µM (inactive) | 4.16 µM (inactive) | 13.9 µM (inactive) | 8.47 µM (inactive) | 3.46 µM (inactive) | 10.4 µM (inactive) | 4.02 µM (inactive) | 14.3 µM (inactive)
COC(=O)C(=O)C(C(=O)C(=O)Nc1cccc([N+](=O)[O-])c1)c1nc2ccc(Cl)cc2nc1O (stereo not given) | > 100 µM (inactive) | > 100 µM (inactive) | > 100 µM (inactive) | > 100 µM (inactive) | > 100 µM (inactive) | > 100 µM (inactive) | > 100 µM (inactive) | > 100 µM (inactive) | 95.7 µM (inactive) | 65.3 µM (inactive) | 36.7 µM (inactive) | > 100 µM (inactive) | > 100 µM (inactive) | 45.5 µM (inactive) | > 100 µM (inactive) | 77.1 µM (inactive) | > 100 µM (inactive) | > 100 µM (inactive) | > 100 µM (inactive) | > 100 µM (inactive)
CCNCC(=O)Nc1ccc2c(c1)C(=O)c1ccc(NC(=O)CNCC)cc1C2=O | 3.75 µM (inactive) | 6.08 µM (inactive) | 36.4 µM (inactive) | 5.75 µM (inactive) | 1.87 µM (inactive) | 2.26 µM (inactive) | 3.38 µM (inactive) | 3.01 µM (inactive) | 8.77 µM (inactive) | 3.3 µM (inactive) | 3.21 µM (inactive) | 5.51 µM (inactive) | 2.45 µM (inactive) | 4.97 µM (inactive) | 3.01 µM (inactive) | 1.41 µM (inactive) | 1.44 µM (inactive) | 2.27 µM (inactive) | 11.7 µM (inactive) | 1.7 µM (inactive)
Cc1ccc2c(c1)C(C1Cc3c(C)cccc3C1=O)OC2=O (stereo not given) | > 100 µM (inactive) | 40.4 µM (inactive) | > 100 µM (inactive) | > 100 µM (inactive) | > 100 µM (inactive) | > 100 µM (inactive) | > 100 µM (inactive) | > 100 µM (inactive) | > 100 µM (inactive) | > 100 µM (inactive) | > 100 µM (inactive) | > 100 µM (inactive) | 96.6 µM (inactive) | 95.5 µM (inactive) | > 100 µM (inactive) | 87.7 µM (inactive) | > 100 µM (inactive) | > 100 µM (inactive) | > 100 µM (inactive) | > 100 µM (inactive)
CCCn1c2ccccc2c2ccc3c(c21)C(=O)C=CC3=O | 4.13 µM (inactive) | 2.9 µM (inactive) | > 7.91 µM (inactive) | > 10 µM (inactive) | 1.98 µM (inactive) | > 10 µM (inactive) | 1.85 µM (inactive) | 0.938 µM (active) | 2.78 µM (inactive) | 2.06 µM (inactive) | 4.06 µM (inactive) | 3.31 µM (inactive) | > 10 µM (inactive) | > 4.8 µM (inactive) | > 10 µM (inactive) | > 10 µM (inactive) | 1.63 µM (inactive) | 2.3 µM (inactive) | > 10 µM (inactive) | > 9.68 µM (inactive)
COc1ccc(/C=C/C(=O)/C=C/c2ccc(OC)cc2OC)c(OC)c1 | 5.6 µM (inactive) | 8.02 µM (inactive) | 3.77 µM (inactive) | 44.5 µM (inactive) | 2.41 µM (inactive) | 3.63 µM (inactive) | 18.6 µM (inactive) | 3.13 µM (inactive) | 5.35 µM (inactive) | 29.9 µM (inactive) | 13.6 µM (inactive) | 10.1 µM (inactive) | 2.64 µM (inactive) | 15.8 µM (inactive) | 4.01 µM (inactive) | 14.9 µM (inactive) | 4.34 µM (inactive) | 2.41 µM (inactive) | 33.8 µM (inactive) | 3.23 µM (inactive)
